Test results reported in patent US6673791B2, “Non-nucleoside reverse transcriptase inhibitors” (Boehringer Ingelheim (Canada) Ltd., priority 2001, dated 2004).
Where two headings read alike, the source gives them in different places.

Key:
[1] = system: WT RT (HIV-1 wild type strain); experiment: EC50 assay, WT RT strain; format: cell-based
From the text: (§1) Reverse TranscriptASE (RT) Assays
(§2) The assays are as described in WO 01/96338A1, the contents of which are hereby incorporated herein. The results are listed in Tables 8 as IC50(nM) and EC50(nM).

[2] = system: K103N/Y181C (HIV-1 double mutant strain); experiment: EC50 assay, K103N/Y181C strain; format: cell-based
From the text: as §1, §2

[3] = biological target: T1, WT RT (HIV-1 RT) (Human immunodeficiency virus type 1 group M subtype B, UniProt P03366); experiment: biochemical
T1 construct: mutations that occur in the reverse transcriptase segment of the pol gene
From the text: (§3) Based upon testing of these compounds, as described below, it is known that they inhibit the RNA-dependent DNA polymerase activity of HIV-1 RT. […] Utilising the Reverse Transcriptase (RT) Assay described below, compounds can be tested for their ability to inhibit the RNA-dependent DNA polymerase activity of HIV-1 RT. Certain specific compounds described in the Examples which appear below, were so tested. The results of this testing appear in Table 4 as IC50 (nM) and Table 5 as EC50 (nM).
as §1, §2

[4] = biological target: T2, Y188L mutant RT (HIV-1 RT) (Human immunodeficiency virus type 1 group M subtype B, UniProt P03366, Y787L); experiment: biochemical
T2 construct: mutations that occur in the reverse transcriptase segment of the pol gene
From the text: as §3, §1, §2

[5] = biological target: T3, V106A mutant RT (HIV-1 RT) (Human immunodeficiency virus type 1 group M subtype B, UniProt P03366, V705A); experiment: biochemical
T3 construct: mutations that occur in the reverse transcriptase segment of the pol gene
From the text: as §3, §1, §2

[6] = biological target: T4, K103N/Y181C double mutant RT (HIV-1 RT) (Human immunodeficiency virus type 1 group M subtype B, UniProt P03366, K702N/Y780C); experiment: biochemical
T4 construct: mutations that occur in the reverse transcriptase segment of the pol gene
From the text: as §3, §1, §2

[7] = Human immunodeficiency virus 1, read-out: EC50 WT RT (nM)
[8] = Human immunodeficiency virus 1, read-out: EC50 K103N/Y181C (nM), K103N/Y181C double mutant

Structure (SMILES)	EC50 [1, 7] [nM]	EC50 [2, 8] [nM]	IC50 [3] [µM]	IC50 ([4]; IC50 Y188L (nM)) [nM]	IC50 ([5]; IC50 V106A (nM)) [nM]	IC50 [6] [µM]	EC50 ([1]; wild type, read-out: EC50 WT RT) [nM]	EC50 ([2]; K103N/Y181C double mutant, read-out: EC50 K103N/Y181C) [nM]	IC50 ([3]; wild type RT, read-out: IC50 WT RT) [µM]	IC50 ([4]; read-out: IC50 Y188L) [nM]	IC50 ([5]; read-out: IC50 V106A) [nM]	IC50 ([6]; K103N/Y181C double mutant RT, read-out: IC50 K103N/Y181C) [µM]
CCN1c2ncc(CCOc3ccc(C(C)C(=O)O)c4ccccc34)cc2C(=O)N(C)c2cccnc21 (stereo not drawn) [Entry 1020]	< 100	< 100	< 0.1	> 1000	> 1000	0.1 to 1						
CCN1c2ncc(CCOc3ccc(CCC(=O)O)c4ccccc34)cc2C(=O)N(C)c2cccnc21 [Entry 1021]	< 100	< 100	< 0.1	> 1000	> 1000	0.1 to 1						
CCN1c2ncc(CCOc3ccc(CCC(=O)O)c4ccccc34)cc2C(=O)N(C)c2ccc(Cl)nc21 [Entry 1022]	< 100	< 100	< 0.1	> 1000	100 to 1000	0.1 to 1						
CCN1c2ncc(CCOc3ccc(CCC(=O)O)c4ccccc34)cc2C(=O)N(C)c2ccc(F)nc21 [Entry 1023]	< 100	< 100	< 0.1	> 1000	> 1000	0.1 to 1						
CCN1c2ncc(CCOc3ccc(CCC(=O)O)c4ccccc34)cc2C(=O)Nc2c(C)cc(Cl)nc21 [Entry 1025]	< 100	100 to 1000	< 0.1	> 1000	100 to 1000	0.1 to 1						
CCN1c2ncc(CCOc3ccc(/C=C/C(=O)O)c4ccccc34)cc2C(=O)N(C)c2cccnc21 [Entry 1028]	< 100	< 100	< 0.1	100 to 1000	> 1000	0.1 to 1						
CCN1c2ncc(CCOc3ccc(/C=C/C(=O)O)c4ccccc34)cc2C(=O)N(C)c2ccc(Cl)nc21 [Entry 1029]	< 100	< 100	< 0.1	100 to 1000	100 to 1000	0.1 to 1						
CCN1c2ncc(CCOc3ccc(/C=C/C(=O)O)c4ccccc34)cc2C(=O)Nc2c(C)cc(Cl)nc21 [Entry 1030]	< 100	< 100	< 0.1	> 1000	< 100	0.1 to 1						
CCN1c2ncc(CCOc3ccc(/C=C/C(=O)O)c4ccccc34)cc2C(=O)Nc2c(C)ccnc21 [Entry 1031]	< 100	< 100	< 0.1	> 1000	100 to 1000	0.1 to 1						
CCN1c2ncc(CCOc3ccc(/C=C/C(=O)O)c4ccccc34)cc2C(=O)N(C)c2ccc(F)nc21 [Entry 1032]	< 100	< 100	< 0.1	100 to 1000	100 to 1000	0.1 to 1						
CCN1c2ncc(CCOc3ccc(/C=C/C(=O)O)c4ccccc34)cc2C(=O)N(C)c2ccc(C)nc21 [Entry 1033]	< 100	< 100	< 0.1	100 to 1000	100 to 1000	0.1 to 1						
CCN1c2ncc(CCOc3ccc(/C=C/C(=O)O)c4ccccc34)cc2C(=O)Nc2c(C)cc(F)nc21 [Entry 1034]	< 100	< 100	< 0.1	> 1000	< 100	0.1 to 1						
CCN1c2ncc(CCOc3ccc(/C=C(\C)C(=O)O)c4ccccc34)cc2C(=O)N(C)c2cccnc21 [Entry 1035]	< 100	< 100	< 0.1	> 1000	> 1000	0.1 to 1						
CCN1c2ncc(CCOc3ccc(/C=C(\C)C(=O)O)c4ccccc34)cc2C(=O)N(C)c2ccc(Cl)nc21 [Entry 1036]	< 100	< 100	< 0.1	> 1000	100 to 1000	0.1 to 1						
CCN1c2ncc(CCOc3ccc(/C=C(\C)C(=O)O)c4ccccc34)cc2C(=O)N(C)c2ccc(F)nc21 [Entry 1037]	< 100	< 100	< 0.1	> 1000	> 1000	0.1 to 1						
CCN1c2ncc(CCOc3ccc(/C=C(\C)C(=O)O)c4ccccc34)cc2C(=O)N(C)c2ccc(C)nc21 [Entry 1038]	< 100	< 100	< 0.1	> 1000	> 1000	0.1 to 1						
CCN1c2ncc(CCOc3ccc(/C=C(\C)C(=O)O)c4ccccc34)cc2C(=O)Nc2c(C)cc(Cl)nc21 [Entry 1040]	< 100	100 to 1000	< 0.1	> 1000	100 to 1000	0.1 to 1						
CCN1c2ncc(CCOc3ccc(CC(C)C(=O)O)c4ccccc34)cc2C(=O)N(C)c2cccnc21 (stereo not drawn) [Entry 1042]	< 100	< 100	< 0.1	> 1000	> 1000	0.1 to 1						
CCN1c2ncc(CCOc3ccc(CC(C)C(=O)O)c4ccccc34)cc2C(=O)N(C)c2ccc(Cl)nc21 (stereo not drawn) [Entry 1044]	< 100	< 100	< 0.1	> 1000	> 1000	0.1 to 1						
CCN1c2ncc(CCOc3ccc(/C(C)=C/C(=O)O)c4ccccc34)cc2C(=O)N(C)c2cccnc21 [Entry 1048]	< 100	< 100	< 0.1	> 1000	> 1000	0.1 to 1						
C=C(CC(=O)O)c1ccc(OCCc2cnc3c(c2)C(=O)N(C)c2cccnc2N3CC)c2ccccc12 [Entry 1049]	< 100	100 to 1000	< 0.1	> 1000	> 1000	0.1 to 1						
CCN1c2ncc(CCOc3ccc(C4CC4C(=O)O)c4ccccc34)cc2C(=O)N(C)c2ccc(F)nc21 (stereo not drawn) [Entry 1050]	< 100	100 to 1000	< 0.1	100 to 1000	100 to 1000	0.1 to 1						
CCN1c2ncc(CCOc3ccc(C(C)CC(=O)O)c4ccccc34)cc2C(=O)N(C)c2cccnc21 (stereo not drawn) [Entry 1051]	< 100	< 100	< 0.1	> 1000	> 1000	0.1 to 1						
CCN1c2ncc(CCOc3ccc(NC(=O)CCC(=O)O)c4ccccc34)cc2C(=O)N(C)c2cccnc21 [Entry 2006]							< 100	100 to 1000	< 0.1	> 1000	> 1000	0.1 to 1
CCN1c2ncc(CCOc3cccc4c(S(=O)(=O)NCC(=O)O)cccc34)cc2C(=O)N(C)c2cccnc21 [Entry 2008]	100 to 1000	100 to 1000	< 0.1	100 to 1000	100 to 1000	< 0.1						
